Laboratory results as given in patent US8802686B2, “Sulfone-substituted anilinopyrimidine derivatives as CDK inhibitors, the production thereof, and use as a medicine” (Bayer Intellectual Property GmbH, priority 2008, dated 2014).
Like-named read-outs stand apart in the source and are kept apart here.

Assays:
[1] = tested on: Caco-2, human colon carcinoma cells; test: Proliferation assay (Assay 5), Caco-2; assay type: cell-based; conditions: 96 h, Caco-2, 4 days, read-out: Concentration of the half-maximal inhibition of the cell proliferation, IC50
Description: (§1) Cultivated human tumour cells (MCF7, hormone-independent human breast carcinoma cells, acquired from ATCC HTB22; NCI-H460, human non-small-cell lung carcinoma cells, ATCC HTB-177; DU 145, hormone-independent human prostrate carcinoma cells, ATCC HTB-81; HeLa-MaTu, human cervix carcinoma cells, EPO-GmbH, Berlin; HeLa-MaTu-MDR, multiple drug-resistant human cervix carcinoma cells, EPO-GmbH, Berlin; Caco-2, human colon carcinoma cells, ATCC HTB-37; B16F10, murine melanoma cell, ATCC CRL-6475) were plated out at a density of ca. 1000-5000 cells/measuring point, depending on the growth rate of the particular cells, in a 96-well multititre plate in 200 μl of the corresponding growth medium. After 24 hours, the cells of one plate (zero-point plate) were stained with crystal violet (see below), whereas the medium of the other plates was replaced with fresh culture medium (200 μl), to which the test substances had been added at different concentrations (0 μM, and in the range 0.003-3 μM; the final concentration of the solvent dimethyl sulphoxide was 0.5%). The cells were incubated for 4 days in the presence of the test substances. Cell proliferation was determined by staining the cells with crystal violet: the cells were fixed by adding 20 μl/measuring point of an 11% glutaraldehyde solution for 15 min at room temperature. After washing the fixed cells with water three times, the plates were dried at room temperature. The cells were stained by adding 100 μl/measuring point of a 0.1% crystal violet solution (pH adjusted to pH 3 by adding acetic acid). After washing the stained cells with water three times, the plates were dried at room temperature. The dye was dissolved by adding 100 μl/measuring point of a 10% acetic acid solution. The extinction was determined photometrically at a wavelength of 595 nm. […] The IC50 values were determined by means of a 4-parameter fit using the company's own software.

[2] = tested on: NCI-H460, human non-small-cell lung carcinoma cells; test: Proliferation assay (Assay 5), NCI-H460; assay type: cell-based; conditions: 96 h, NCI-H460, 4 days, read-out: Concentration of the half-maximal inhibition of the cell proliferation, IC50
Description: as §1

CDK1/CycB = CDK1/CycB (Homo sapiens (Human), UniProt P06493); test: CDK1/CycB kinase assay (Assay 1); assay type: biochemical; conditions: read-out: CDK1/CycB (Assay 1) Concentration of the half-maximal inhibition of the enzyme activity, IC50
Method: CDK1/CycB (200 ng/measuring point) was incubated for 10 min at 22° C. in the presence of different concentrations of test substances (0 and within the range 0.001-10 μM) in assay buffer [50 mM Tris/HCl pH 8.0; 10 mM MgCl2; 0.1 mM Na ortho-vanadate; 1.0 mM dithiothreitol; 0.5 μM adenosine trisphosphate (ATP); 10 μg/measuring point histone IIIS; 0.2 μCi/measuring point ^33P-gamma ATP; 0.05% NP40; 1.25% dimethyl sulphoxide]. The reaction was stopped by adding EDTA solution (250 mM; pH 8.0; 15 μl/measuring point).
From each reaction mixture, 15 μl were applied to P30 filter strips (Wallac), and unincorporated ^33P-ATP was removed by washing the filter strips three times, for 10 min in each case, in 0.5% phosphoric acid. After drying the filter strips for 1 hour at 70°, the filter strips were covered with scintillator strips (MeltiLex™ A, Wallac) and stoved for 1 hour at 90° C. The amount of incorporated ^33P (substrate phosphorylation) was determined by scintillation measurement in a gamma-radiation measuring instrument (Wallac). […] The IC50 values were determined by means of a 4-parameter fit using the company's own software.

[3] = tested on: DU 145, hormone-independent human prostrate carcinoma cells; test: Proliferation assay (Assay 5), DU145; assay type: cell-based; conditions: DU-145, 96 h, DU145, 4 days, read-out: Concentration of the half-maximal inhibition of the cell proliferation, IC50
Description: as §1

[4] = tested on: B16F10, murine melanoma cell; test: Proliferation assay (Assay 5), B16F10; assay type: cell-based; conditions: Mus musculus, B16-F10, 96 h; B16F10, 4 days; read-out: Concentration of the half-maximal inhibition of the cell proliferation, IC50
Description: as §1

CDK4/CycD1 = CDK4/CycD1 (Homo sapiens (Human), UniProt P11802); test: CDK4/CycD kinase assay (Assay 3); assay type: biochemical; conditions: read-out: CDK4/CycD (Assay 3) Concentration of the half-maximal inhibition of the enzyme activity, IC50
Method: Recombinant CDK4 and CycD1-GST fusion proteins, purified from baculovirus-infected insect cells (Sf9), were purchased from ProQinase GmbH, Freiburg. CDK4/CycD1 (250 ng/measuring point) was incubated for 3 hours at 22° C. in the presence of different concentrations of test substances (0 μM, and within the range 0.001-10 μM) in 31 μl of assay buffer [50 mM Hepes pH 7.0; 2.5 mM MnCl; 0.05 mM Na ortho-vanadate; 1.0 mM dithiothreitol; 0.25 μM adenosine trisphosphate (ATP); 0.5 μM biotinylated myelin basic protein (bio-MPB, GE Healthcare); 0.05 μCi/measuring point ^33P-gamma ATP; 0.005% NP40; 0.025% bovine serum albumin; 3% dimethyl sulphoxide]. The reaction was stopped by adding 50 μl of stop-mix [100 μM ATP; 10 mM EDTA pH 8.0; 0.2% Triton X100; 0.125 mg of streptavidin-SPA Beads (GE Healthcare)]. After incubation for 10 min at room temperature, the SPA beads were pelleted by centrifugation (10 min; 1500 g). The amount of incorporated ^33P (substrate phosphorylation) was determined by scintillation measurement in a beta-radiation measuring instrument (Microbeta, Perkin Elmer).

[5] = tested on: HeLa-MaTu-ADR (HeLa-MaTu-MDR, multiple drug-resistant human cervix carcinoma cells); test: Proliferation assay (Assay 5), HeLa-MaTu-ADR; assay type: cell-based; conditions: 96 h, HeLa-MaTu-ADR, 4 days, read-out: Concentration of the half-maximal inhibition of the cell proliferation, IC50
Description: as §1

[6] = biological target: VEGF receptor tyrosine kinase-2 (VEGF-R2) (Homo sapiens (Human), UniProt P35968); test: VEGF receptor-2 kinase assay (Assay 4); assay type: biochemical; conditions: read-out: VEGF-R2 (Assay 4) Concentration of the half-maximal inhibition of the enzyme activity, IC50
Method: Recombinant VEGF receptor tyrosine kinase-2 was purified as GST fusion protein from baculovirus-infected insect cells (Sf9). Poly-(Glu4Tyr), which was used as kinase substrate, was purchased from Sigma.
VEGF receptor tyrosine kinase (90 ng/measuring point) was incubated for 10 min at 22° C. in the presence of different concentrations of test substances (0 μM, and within the range 0.001-10 μM) in 30 μl of assay buffer [40 mM Tris/HCl pH 5.5; 10 mM MgCl2; 1 mM MnCl2; 3 μM Na ortho-vanadate; 1.0 mM dithiothreitol; 8 μM adenosine trisphosphate (ATP); 0.96 μg/measuring point poly-(Glu4Tyr); 0.2 μCi/measuring point ^33P-gamma ATP; 1.4% dimethyl sulphoxide]. The reaction was stopped by adding EDTA solution (250 mM; pH 8.0; 15 μl/measuring point).
(§2) From each reaction mixture, 15 μl were applied to P30 filter strips (Wallac), and unincorporated ^33P-ATP was removed by washing the filter strips three times, for 10 min in each case, in 0.5% phosphoric acid. After drying the filter strips for 1 hour at 70° C., the filter strips were covered with scintillator strips (MeltiLex™ A, Wallac) and stoved for 1 hour at 90° C. The amount of incorporated ^33P (substrate phosphorylation) was determined by scintillation measurement in a gamma-radiation measuring instrument (Wallac). […] The IC50 values were determined by means of a 4-parameter fit using the company's own software.

[7] = Permeability assay (Assay 6), Caco-2 monolayer; assay type: in vitro ADME; conditions: human
Method: The Caco-2 monolayer is a barrier between 2 compartments. The cells here behave similarly to the small intestine cells. Active ingredients can be transported either paracellularly or transcellularly. Here, the transport takes place in most cases from apical (luminal) to basolateral (serosal). In the case of p-glycoprotein substrates, back-transport from basolateral to apical is also usually observed.
Experimental procedure: The permeability test is carried out both from apical to basolateral and also from basolateral to apical. For this, two filters are used per substance; incubation takes place over 90 min at 37° C. in a water bath. […] As reference substances, (i) PEG 4000 are used as hydrophilic marker. On account of its high molecular weight, it is unable to permeate into the cell membrane or into the pores of the tight junctions. PEG 4000 is therefore a marker of the intactness of the cell monolayer and the narrowness of the tight junctions. PEG 4000 is not absorbed in humans. (ii) Clonidine is known as completely absorbed substances in people (100%). They serve as markers for very highly permeable substances with Papp values above 100 nm/s. (iii) Digoxin is a known Pgp substrate. […] In the reverse experiment (basolateral to apical), the Papp values should be higher by a factor of about 10 as a result of the active directional transport into the apical compartment.
The permeation coefficient Papp is used to estimate the absorption in people according to the following scheme: […]

CDK2/CycE = CDK2/CycE (Homo sapiens (Human), UniProt P24941); test: CDK2/CycE kinase assay (Assay 2); assay type: biochemical; conditions: read-out: CDK2/CycE (Assay 2) Concentration of the half-maximal inhibition of the enzyme activity, IC50
Method: Recombinant CDK2 and CycE-GST fusion proteins, purified from baculovirus-infected insect cells (Sf9), were purchased from ProQinase GmbH, Freiburg. Histone IIIS, which was used as kinase substrate, was purchased from Sigma.
CDK2/CycE (50 mg/measuring point) was incubated for 10 min at 22° C. in the presence of different concentrations of test substances (0 μM, and within the range 0.001-10 μM) in assay buffer [50 mM Tris/HCl pH 8.0; 10 mM MgCl2; 0.1 mM Na ortho-vanadate; 1.0 mM dithiothreitol; 0.5 μM adenosine trisphosphate (ATP); 10 μg/measuring point histone IIIS; 0.2 μCi/measuring point ^33P-gamma ATP; 0.05% NP40; 1.25% dimethyl sulphoxide]. The reaction was stopped by adding EDTA solution (250 mM; pH 8.0; 15 μl/measuring point).
as §2

[8] = tested on: MCF7, hormone-independent human breast carcinoma cells; test: Proliferation assay (Assay 5), MCF7; assay type: cell-based; conditions: read-out: Concentration of the half-maximal inhibition of the cell proliferation, IC50
Description: as §1

CDK1/CycB, sequence (P06493 whole entry): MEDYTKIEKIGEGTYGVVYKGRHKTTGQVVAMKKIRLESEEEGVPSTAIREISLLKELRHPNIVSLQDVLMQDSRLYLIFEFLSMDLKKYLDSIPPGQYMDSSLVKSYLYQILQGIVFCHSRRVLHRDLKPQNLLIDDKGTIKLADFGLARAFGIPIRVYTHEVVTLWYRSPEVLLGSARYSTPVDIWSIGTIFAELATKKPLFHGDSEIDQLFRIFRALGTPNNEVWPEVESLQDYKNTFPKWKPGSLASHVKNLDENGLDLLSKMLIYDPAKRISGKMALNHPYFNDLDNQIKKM
CDK1/CycB, sequence (P14635 whole entry partner): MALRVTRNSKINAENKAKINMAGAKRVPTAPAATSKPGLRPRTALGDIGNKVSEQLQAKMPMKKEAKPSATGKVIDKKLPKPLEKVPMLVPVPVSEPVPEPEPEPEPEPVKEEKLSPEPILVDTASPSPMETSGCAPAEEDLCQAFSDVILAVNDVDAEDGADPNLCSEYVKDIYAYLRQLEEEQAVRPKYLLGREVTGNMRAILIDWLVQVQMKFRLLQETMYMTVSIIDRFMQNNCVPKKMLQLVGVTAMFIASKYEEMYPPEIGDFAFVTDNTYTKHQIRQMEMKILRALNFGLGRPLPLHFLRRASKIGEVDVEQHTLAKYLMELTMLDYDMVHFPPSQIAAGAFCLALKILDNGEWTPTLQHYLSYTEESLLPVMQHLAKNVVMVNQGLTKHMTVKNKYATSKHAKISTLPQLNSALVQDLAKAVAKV
CDK4/CycD1, sequence (P11802 whole entry, the tested form may be a part): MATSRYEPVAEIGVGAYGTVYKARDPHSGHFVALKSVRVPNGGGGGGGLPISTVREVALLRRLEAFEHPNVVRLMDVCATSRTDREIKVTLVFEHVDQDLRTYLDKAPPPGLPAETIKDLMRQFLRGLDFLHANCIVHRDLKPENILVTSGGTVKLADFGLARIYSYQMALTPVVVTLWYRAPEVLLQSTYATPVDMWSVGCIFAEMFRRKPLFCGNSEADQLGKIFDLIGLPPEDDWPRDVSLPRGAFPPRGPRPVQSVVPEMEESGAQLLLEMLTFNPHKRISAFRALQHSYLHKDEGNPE
CDK4/CycD1, sequence (P24385 whole entry partner, the tested form may be a part): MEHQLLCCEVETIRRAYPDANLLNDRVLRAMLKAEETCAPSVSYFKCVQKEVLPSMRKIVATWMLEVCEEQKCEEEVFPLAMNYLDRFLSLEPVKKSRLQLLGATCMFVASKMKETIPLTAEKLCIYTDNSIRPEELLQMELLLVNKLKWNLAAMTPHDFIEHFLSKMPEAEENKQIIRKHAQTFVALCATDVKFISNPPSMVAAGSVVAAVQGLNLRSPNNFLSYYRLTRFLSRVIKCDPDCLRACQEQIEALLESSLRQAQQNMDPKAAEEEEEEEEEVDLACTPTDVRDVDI
VEGF receptor tyrosine kinase-2 (VEGF-R2), sequence (P35968 20-1356, species assumed): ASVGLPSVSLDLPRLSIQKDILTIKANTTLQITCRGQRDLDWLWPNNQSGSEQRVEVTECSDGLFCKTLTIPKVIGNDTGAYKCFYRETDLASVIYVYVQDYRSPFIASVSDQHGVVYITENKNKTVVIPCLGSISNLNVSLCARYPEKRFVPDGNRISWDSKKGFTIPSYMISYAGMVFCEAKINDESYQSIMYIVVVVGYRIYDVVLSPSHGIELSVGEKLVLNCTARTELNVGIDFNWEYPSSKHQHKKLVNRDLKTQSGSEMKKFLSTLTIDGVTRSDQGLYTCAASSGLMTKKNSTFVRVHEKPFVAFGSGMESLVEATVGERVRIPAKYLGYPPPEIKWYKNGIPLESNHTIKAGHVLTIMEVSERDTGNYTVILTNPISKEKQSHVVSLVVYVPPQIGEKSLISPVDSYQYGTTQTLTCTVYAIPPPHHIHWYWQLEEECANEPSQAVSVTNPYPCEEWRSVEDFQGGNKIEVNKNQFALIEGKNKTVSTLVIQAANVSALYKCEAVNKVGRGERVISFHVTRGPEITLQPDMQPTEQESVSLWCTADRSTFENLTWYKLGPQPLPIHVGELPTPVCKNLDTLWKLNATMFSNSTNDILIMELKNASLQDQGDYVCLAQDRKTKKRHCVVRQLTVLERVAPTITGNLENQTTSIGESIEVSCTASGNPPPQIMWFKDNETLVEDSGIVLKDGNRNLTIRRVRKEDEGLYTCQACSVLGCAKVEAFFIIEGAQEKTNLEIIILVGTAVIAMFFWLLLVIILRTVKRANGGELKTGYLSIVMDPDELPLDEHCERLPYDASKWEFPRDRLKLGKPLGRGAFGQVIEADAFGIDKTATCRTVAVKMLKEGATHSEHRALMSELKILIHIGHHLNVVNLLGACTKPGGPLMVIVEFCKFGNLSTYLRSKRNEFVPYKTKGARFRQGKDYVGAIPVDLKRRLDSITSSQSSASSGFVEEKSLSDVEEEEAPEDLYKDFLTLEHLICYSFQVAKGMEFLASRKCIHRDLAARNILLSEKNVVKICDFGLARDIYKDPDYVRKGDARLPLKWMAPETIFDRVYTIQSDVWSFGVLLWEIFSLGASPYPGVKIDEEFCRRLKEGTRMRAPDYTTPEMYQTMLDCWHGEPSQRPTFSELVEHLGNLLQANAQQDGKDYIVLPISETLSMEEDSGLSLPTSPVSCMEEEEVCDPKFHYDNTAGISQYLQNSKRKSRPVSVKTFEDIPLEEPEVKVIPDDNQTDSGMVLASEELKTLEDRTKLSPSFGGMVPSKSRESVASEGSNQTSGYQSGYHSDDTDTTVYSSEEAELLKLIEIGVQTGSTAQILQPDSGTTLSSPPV

| SMILES | IC50 (CDK1/CycB) | IC50 (CDK2/CycE) | IC50 ([8]; 96 h, MCF7, 4 days) | other results |
| --- | --- | --- | --- | --- |
| C[C@@H](O)[C@@H](C)Nc1nc(Nc2ccc(S(=O)(=O)C3CC3)cc2)ncc1C(F)(F)F [C1, (2R,3R)-3-[2-(4-Cyclopropanesulphonylphenylamino)-5-trifluoromethylpyrimidin-4-ylamino]butan-2-ol, reference compound] | 0.008 µM | 0.006 µM | 0.065 µM | IC50 [1]: 0.063 µM; IC50 [2]: 0.037 µM; IC50 [3]: 0.046 µM; IC50 [4]: 0.078 µM; IC50 (CDK4/CycD1): 0.052 µM; IC50 [5]: 0.026 µM; IC50 [6]: 0.051 µM; efflux ratio at 90 min ([7]; Caco-2, read-out: ratio (b-a)/(a-b)): 0.8; Papp A→B at 90 min ([7]; Caco-2, 90 min, 37° C., read-out: Permeation coefficient, Papp apical-basolateral (a-b)): 207 nm/s; Papp B→A at 90 min ([7]; Caco-2, 90 min, 37° C., read-out: Permeation coefficient, Papp basolateral-apical (b-a)): 174 nm/s |
| C[C@@H](Nc1nc(Nc2ccc(S(C)(=O)=O)cc2)ncc1C(F)(F)F)C(C)(C)O [C3, (R)-3-[2-(4-Methanesulphonylphenylamino) 5-trifluoro-methylpyrimidin-4-ylamino]-2-methylbutan-2-ol, reference compound] | 0.009 µM | 0.008 µM | 0.061 µM | IC50 [1]: 0.133 µM; IC50 [2]: 0.093 µM; IC50 [3]: 0.06 µM; IC50 [4]: 0.106 µM; IC50 (CDK4/CycD1): 0.024 µM; IC50 [5]: 0.037 µM; IC50 [6]: 0.19 µM |
| C[C@@H](Oc1nc(Nc2ccc(S(=O)(=O)C3CC3)cc2)ncc1C(F)(F)F)C(C)(C)O [Example 4, (R)-3-[2-(4-Cyclopropanesulphonylphenylamino)-5-tri-fluoromethylpyrimidin-4-yloxy]-2-methylbutan-2-ol] | 0.036 µM | 0.021 µM | 0.105 µM | IC50 [1]: 0.205 µM; IC50 [2]: 0.226 µM; IC50 [3]: 0.194 µM; IC50 [4]: 0.287 µM; IC50 [5]: 0.142 µM |
| C[C@@H](O)[C@@H](C)Oc1nc(Nc2ccc(S(=O)(=O)c3ccccc3)cc2)ncc1C(F)(F)F [Example 5, (2R,3R)-3-[2-(4-Benzenesulphonylphenylamino)-5-tri-fluoromethylpyrimidin-4-yloxy]butan-2-ol] | 0.041 µM | 0.036 µM |  |  |
| C[C@@H](O)[C@@H](C)Oc1nc(Nc2ccc(S(=O)(=O)C(F)F)cc2)ncc1C(F)(F)F [Example 6, (2R,3R)-3-{2-[4-(Difluoromethanesulphonyl)phenylamino]-5-trifluoromethylpyrimidin-4-yloxy}butan-2-ol] | 0.024 µM | 0.012 µM |  |  |
| C[C@@H](O)[C@@H](C)Oc1nc(Nc2ccc(S(=O)(=O)C3CCCC3)cc2)ncc1C(F)(F)F [Example 7, (2R,3R)-3-[2-(4-Cyclopentanesulphonylphenylamino)-5-triluoromethylpyrimidin-4-yloxy]butan-2-ol] | 0.023 µM | 0.021 µM |  |  |
| C=CCS(=O)(=O)c1ccc(Nc2ncc(C(F)(F)F)c(O[C@H](C)C(C)(C)O)n2)cc1 [Example 8, (R)-2-Methyl-3-{2-[4-(prop-2-ene-1-sulphonyl)phenylamino]-5-trifluoromethylpyrimidin-4-yl-oxy}butan-2-ol] | 0.043 µM | 0.011 µM |  |  |
| C#CCOc1nc(Nc2ccc(S(C)(=O)=O)cc2)ncc1C(F)(F)F [Example 13, (4-Methanesulphonylphenyl)(4-prop-2-ynyloxy-5-trifluoromethylpyrimidin-2-yl)amine] | 0.13 µM | 0.025 µM |  | IC50 ([8]; MCF7, 96 h): 0.74 µM |
| CS(=O)(=O)c1ccc(Nc2ncc(C(F)(F)F)c(OCCC(F)(F)F)n2)cc1 [Example 14, (4-Methanesulphonylphenyl)[5-trifluoromethyl-4-(3,3,3-trifluoropropoxy)pyrimidin-2-yl]amine] | 0.74 µM | 0.094 µM |  | IC50 ([8]; MCF7, 96 h): 2.2 µM |

Second part, led by results:

| IC50 (CDK1/CycB) | IC50 (CDK2/CycE) | IC50 ([8]; 96 h, MCF7, 4 days) | SMILES | other results |
| --- | --- | --- | --- | --- |
| 0.012 µM | 0.006 µM |  | CC(C)S(=O)(=O)c1ccc(Nc2ncc(C(F)(F)F)c(O[C@H](C)[C@@H](C)O)n2)cc1 [Example 9, (2R,3R)-3-{2-[4-(Propane-2-sulphonyl)phenylamino]-5-trifluoromethylpyrimidin-4-yloxy}butan-2-ol] |  |
| 0.082 µM | 0.043 µM |  | C#CCS(=O)(=O)c1ccc(Nc2ncc(C(F)(F)F)c(O[C@H](C)C(C)(C)O)n2)cc1 [Example 10, (R)-2-Methyl-3-{2-[4-(prop-2-yne-1-sulphonyl)phenylamino]-5-trifluoromethylpyrimidin-4-yloxy}butan-2-ol] |  |
| 0.003 µM | 0.003 µM |  | C[C@@H](O)[C@@H](C)Oc1nc(Nc2ccc(S(=O)(=O)CCO)cc2)ncc1C(F)(F)F [Example 11, (2R,3R)-3-{2-[4-(2-Hydroxyethanesulphonyl)phenylamino]-5-trifluoromethylpyrimidin-4-yloxy}butan-2-ol] |  |
| 0.051 µM | 0.012 µM | 0.191 µM | COC[C@@H](C)Oc1nc(Nc2ccc(S(C)(=O)=O)cc2)ncc1C(F)(F)F [Example 12, (4-Methanesulphonylphenyl) [4-((R)-2-methoxy-1-methyl-ethoxy)-5-trifluoromethylpyrimidin-2-yl]amine] |  |
| 0.28 µM | 0.049 µM | 1.5 µM | C=CCOc1nc(Nc2ccc(S(C)(=O)=O)cc2)ncc1C(F)(F)F [Example 15, (4-Allyloxy-5-trifluoromethylpyrimidin-2-yl)(4-methane-sulphonylphenyl)amine] |  |
| > 1 µM | 0.48 µM | 1.4 µM | CS(=O)(=O)c1ccc(Nc2ncc(C(F)(F)F)c(OC3CCCCC3)n2)cc1 [Example 16, (4-Cyclohexyloxy-5-trifluoromethylpyrimidin-2-yl)(4-methanesulphonylphenyl)amine] |  |
